From patent publication US20250289793A1, “MACROCYCLIC INHIBITORS OF ATP CITRATE LYASE” (Esperion Therapeutics, Inc., priority 2022, published 2025) come the findings set out here.

For test [1], the target named is T1, ACLY (Homo sapiens (Human), UniProt P53396). In words: Human ACLY (hACLY) RF/MS activity assay. The class given is biochemical. The conditions noted are these: 1 nM hACLY; 30 min pre-incubation; 15 μM Coenzyme A, 50 μM ATP, 50 μM citrate; CoA to Acetyl-CoA by RF/MS; read-out: RFMS IC50 GMean. As for the experimental part: Compounds of the disclosure were evaluated for their efficacy in inhibiting hACLY using rapid fire mass spectrometry (RF/MS).
T1 sequence (P53396 whole entry): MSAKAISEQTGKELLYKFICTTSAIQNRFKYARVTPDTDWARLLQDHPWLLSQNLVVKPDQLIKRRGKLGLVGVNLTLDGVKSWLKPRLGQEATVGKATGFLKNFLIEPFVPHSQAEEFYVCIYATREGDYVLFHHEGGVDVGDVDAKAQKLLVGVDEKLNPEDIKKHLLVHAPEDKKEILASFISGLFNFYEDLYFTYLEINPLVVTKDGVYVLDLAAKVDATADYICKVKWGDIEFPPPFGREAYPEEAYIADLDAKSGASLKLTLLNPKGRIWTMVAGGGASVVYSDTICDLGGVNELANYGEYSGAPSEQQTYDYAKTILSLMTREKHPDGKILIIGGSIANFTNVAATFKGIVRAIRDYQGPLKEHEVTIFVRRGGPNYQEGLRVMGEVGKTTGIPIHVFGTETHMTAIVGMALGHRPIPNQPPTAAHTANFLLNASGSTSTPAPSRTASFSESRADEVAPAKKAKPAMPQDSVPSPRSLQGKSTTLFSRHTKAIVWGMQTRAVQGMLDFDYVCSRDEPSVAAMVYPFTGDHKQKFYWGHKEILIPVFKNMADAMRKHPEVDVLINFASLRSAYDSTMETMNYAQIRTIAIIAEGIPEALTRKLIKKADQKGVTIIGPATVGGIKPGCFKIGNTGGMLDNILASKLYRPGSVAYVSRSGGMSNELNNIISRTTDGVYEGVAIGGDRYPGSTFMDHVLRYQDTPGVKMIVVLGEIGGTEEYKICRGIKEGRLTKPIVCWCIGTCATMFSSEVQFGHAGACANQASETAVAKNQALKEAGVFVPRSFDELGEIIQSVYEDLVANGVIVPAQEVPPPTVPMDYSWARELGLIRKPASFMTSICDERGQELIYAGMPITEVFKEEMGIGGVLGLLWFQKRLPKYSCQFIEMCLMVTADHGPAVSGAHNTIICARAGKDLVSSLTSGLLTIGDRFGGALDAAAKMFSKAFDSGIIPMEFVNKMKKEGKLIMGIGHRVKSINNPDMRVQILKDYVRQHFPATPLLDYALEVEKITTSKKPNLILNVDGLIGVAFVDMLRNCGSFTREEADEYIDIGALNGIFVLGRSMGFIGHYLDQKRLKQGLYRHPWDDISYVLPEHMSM
The final reaction volume for each compound was 20 μl and consisted of buffer (50 mM Hepes pH 8.0, 10 mM MgCl2, 0.003% BSA, 0.01% Brij35, 50 mM NaCl, 4 mM DTT) and 1 nM hACLY, EV12992, PP6692) using Greiner, 384 well small volume, deep well plates (Cat #784201). A two-fold dilution series with a top concentration of 10 μM was used to record a concentration response curve. Both the substrate (CoA) and product (Acetyl-CoA) were quantified, and given a ratio. […] The final DMSO-concentration was 1% (v/v). Compounds were pre-incubated for 30 min with the buffered enzyme solution at RT (20° C.), and substrate solution was added (final concentrations: 15 μM Coenzyme A, 50 μM ATP and 50 μM citrate) to initiate the enzyme reaction. The enzyme reaction was incubated for additional 30 min at RT. The reaction was quenched upon addition of 40 μl of 5% Formic acid in H2O and centrifuged (4350 rpm at 20° C. for 10 min).
Product formation was quantified using a RF/MS-based method based on mass change of CoA (substrate) to Acetyl-CoA (product).

Test [2] deals with T1, ACLY. In words: InCell Pulse assay (permeate HEK293 cells, bind to and stabilize ACLY). Particulars: HEK293 cells transfected with pICP-ACLY(FL)-ePL; 1 hour at 37° C., 55° C. heat pulse 10 minutes; read-out: InCell Pulse IC50 GMean. In kind it is cell-based. As for the experimental part: HEK293 cells transfected for 24 hours with pICP-ACLY(FL)-ePL (3 μg DNA per T25 flask) using FuGene HD (Promega Corp.) were harvested and cryopreserved. On the day of the assay, the frozen transfected cells were thawed at 37° C., and the storage medium (DMEM with 2 mM L-Glutamine, 10% FBS and a final concentration of DMSO 10%) was exchanged with assay medium (OptiMEM; Gibco™, ThermoFischer Scientific). Compounds were 3-fold serially diluted in DMSO over 11-point concentration range. 100 nL of the corresponding dilutions were spotted into the assay plate (Greiner AG; 384 Well, PP, Small Volume, Deep Well, Natural, cat. no. 784201) followed by the addition of 20 μL of cell suspension adjusted with assay medium to 7.5E4 cells/mL. Subsequently, the plates were sealed and incubated for 1 hour at 37° C. Afterwards, the plates were fixed upside down in a rack and incubated in a 55° C. water bath for 10 minutes. Following this heat pulse step, plates were allowed to reach room temperature for 10 minutes and centrifuged for a few seconds at 1000 rpm and room temperature. 25 μL EA detection solution (working solution: 0.0167× InCell EA Reagent, 0.15× InCell Dilution Buffer, 0.167× InCell Lysis Buffer; 0.667× InCell Substrate Reagent; InCell Hunter Detection kit; Eurofins DiscoverX; cat. no. 96-0079) were added to each well. Afterwards, 42 μL were transferred from the assay plate to the detection plate (Corning Inc., 384-well Low Flange Black Flat Bottom Polystyrene NBS Microplate, cat. no. 3575), followed by an incubation for 1 hour at room temperature, a centrifugation step for 1 minute at 1000 rpm and the detection of the luminescence signal using an EnVision microplate reader (Perkin Elmer Inc.). Concentration-response curve-fitting and IC50 determination was performed using Evotec's in-house evaluation software APlus with a four-parameter non-linear regression fit model. Data was normalized to 0.5% (final concentration) DMSO as low/negative control and 1 μM (final concentration) NDI-094311 as high/positive control.

The structures appear in SMILES notation. Where only a bound is given, the exact number is not on record here.

One may read the IC50 as the concentration at which inhibition is half-maximal. For the molecule `O=C1OCC2CN(C2)c2ccccc2-c2cc(c(F)cc2F)NS(=O)(=O)c2cc1cc(Cl)c2O` [Compound 76, 16-chloro-22,24-difluoro-17-hydroxy-19,19-dioxo-12-oxa-19λ6-thia-8,20-diazapentacyclo[19.3.1.18,10.114,18.02,7]heptacosa-1(25),2,4,6,14,16,18(26),21,23-nonaen-13-one], the results for the IC50 on ACLY [1] and on ACLY [2] were 20 to 100 nM and 1000 to 50000 nM, respectively.

`O=C1OCc2ccc(F)cc2-c2cc(c(F)cc2F)NS(=O)(=O)c2cc1cc(Cl)c2O` [Compound 81, 13-chloro-4,19,21-trifluoro-14-hydroxy-16,16-dioxo-9-oxa-16λ6-thia-17-azatetracyclo[16.3.1.111,15.02,7]tricosa-1(21),2,4,6,11(23),12,14,18(22),19-nonaen-10-one]: the IC50 was below 20 nM on ACLY [1] and below 300 nM at ACLY [2].

For the molecule `O=C1NCc2ncccc2-c2cc(c(F)cc2F)NS(=O)(=O)c2cc1cc(Cl)c2O` [Compound 90, 13-chloro-19,21-difluoro-14-hydroxy-16,16-dioxo-16λ6-thia-6,9,17-triazatetracyclo[16.3.1.111,15.02,7]tricosa-1(22),2,4,6,11,13,15(23),18,20-nonaen-10-one], the half-inhibitory concentration (IC50) at ACLY [1] was 100 to 10000 nM; on ACLY [2], at least 50000 nM.

With `O=C1NCCOc2ccccc2-c2cc(c(F)cc2F)CS(=O)(=O)c2cc1cc(Cl)c2O` [Compound 14, 15-chloro-21,23-difluoro-16-hydroxy-8-oxa-18lambda6-thia-11-azatetracyclo[18.3.1.1^13,17.0^2,7]pentacosa-1(24),2,4,6,13,15,17(25),20,22-nonaene-12,18,18-trione], the IC50 is at least 10000 nM at ACLY [1] and at least 50000 nM on ACLY [2].

As for `O=C1NCCOc2ccccc2-c2cc(c(F)cc2F)NC(=O)c2cc1ccc2O` [Compound 12, 21,23-difluoro-16-hydroxy-8-oxa-11,19-diazatetracyclo[18.3.1.1^13,17.0^2,7]pentacosa-1(23),2,4,6,13,15,17(25),20(24),21-nonaene-12,18-dione], the IC50 on ACLY [1] is at least 10000 nM; at ACLY [2], at least 50000 nM.

On to `O=C1OCCOc2ccccc2-c2cc(c(F)cc2F)NS(=O)(=O)c2cc1c[nH]c2=O` [Compound 36, 21,23-difluoro-18,18-dioxo-8,11-dioxa-18λ6-thia-15,19-diazatetracyclo[18.3.1.113,17.02,7]pentacosa-1(23),2(7),3,5,13,17(25),20(24),21-octaene-12,16-dione], for which the values for the IC50 at ACLY [1] and on ACLY [2] were 20 to 100 nM and at least 50000 nM, respectively.

With `COc1cc(F)c2cc1-c1ccccc1OCCOC(=O)c1cc(Cl)c(O)c(c1)S(=O)(=O)N2` [Compound 47, 15-chloro-21-fluoro-16-hydroxy-23-methoxy-18,18-dioxo-8,11-dioxa-18λ6-thia-19-azatetracyclo[18.3.1.113,17.02,7]pentacosa-1(23),2(7),3,5,13(25),14,16,20(24),21-nonaen-12-one], the 50% inhibitory concentration (IC50) on ACLY [1] was 20 to 100 nM; on ACLY [2], below 300 nM.

For the molecule `N#Cc1ccc2c(c1)-c1cc(c(F)cc1F)NS(=O)(=O)c1cc(cc(Cl)c1O)C(=O)OCCO2` [Compound 28, 15-chloro-21,23-difluoro-16-hydroxy-12,18,18-trioxo-8,11-dioxa-18lambda6-thia-19-azatetracyclo[18.3.1.1^13,17.0^2,7]pentacosa-1(24),2,4,6,13,15,17(25),20,22-nonaene-4-carbonitrile], the IC50 at ACLY [1] is 20 to 100 nM; at ACLY [2] it was 300 to 1000 nM.

As to `O=C1OCCCOc2cc(F)ccc2-c2cc(c(F)cc2F)NS(=O)(=O)c2cc1cc(Cl)c2O` [Compound 29, 16-chloro-5,22,24-trifluoro-17-hydroxy-8,12-dioxa-19lambda6-thia-20-azatetracyclo[19.3.1^1,4,18.0^2,7]hexacosa-1(25),2,4,6,14,16,18(26),21,23-nonaene-13,19,19-trione], the results for the IC50 at ACLY [1] and on ACLY [2] were 20 to 100 nM and 300 to 1000 nM, respectively.

For the molecule `O=C1OCC2Cc3cccc(c3O2)-c2cc(c(F)cc2F)NS(=O)(=O)c2cc1cc(Cl)c2O` (single isomer, unassigned) [Compound 40, 15-chloro-21,23-difluoro-16-hydroxy-18,18-dioxo-8,11-dioxa-18λ6-thia-19-azapentacyclo[18.3.1.16,9.113,17.02,7]hexacosa-1(23),2(7),3,5,13,15,17(25),20(24),21-nonaen-12-one], the values for the IC50 on ACLY [1] and at ACLY [2] were 100 to 10000 nM and 300 to 1000 nM, respectively.

Take `O=C1OCCOc2ccccc2-c2ccc(C3CC3)c(c2)NS(=O)(=O)c2cc1cc(Cl)c2O` [Compound 57, 15-chloro-21-cyclopropyl-16-hydroxy-18,18-dioxo-8,11-dioxa-18λ6-thia-19-azatetracyclo[18.3.1.113,17.02,7]pentacosa-1(23),2(7),3,5,13(25),14,16,20(24),21-nonaen-12-one]: the IC50 at ACLY [1] was in the range of 20 to 100 nM; at ACLY [2] it was 1000 to 50000 nM.

For the molecule `O=C1OCc2cccnc2-c2cc(c(F)cc2F)NS(=O)(=O)c2cc1cc(Cl)c2O` [Compound 87, 13-chloro-19,21-difluoro-14-hydroxy-16,16-dioxo-9-oxa-16λ6-thia-3,17-diazatetracyclo[16.3.1.111,15.02,7]tricosa-1(21),2(7),3,5,11,13,15(23),18(22),19-nonaen-10-one], the IC50 on ACLY [1] was 20 to 100 nM; at ACLY [2], at least 50000 nM.

As for `O=C1OCCc2ccc(F)cc2-c2ccc(F)c(c2)NS(=O)(=O)c2cc1cc(Cl)c2O` [Compound 74, 14-chloro-4,20-difluoro-15-hydroxy-17,17-dioxo-10-oxa-17λ6-thia-18-azatetracyclo[17.3.1.112,16.02,7]tetracosa-1(22),2(7),3,5,12(24),13,15,19(23),20-nonaen-11-one], the IC50 on ACLY [1] was 20 to 100 nM; at ACLY [2], below 300 nM.

Regarding `Cc1cccc2c1-c1cc(c(F)cc1F)NS(=O)(=O)c1cc(cc(Cl)c1O)C(=O)OCCO2` [Compound 49, 15-chloro-21,23-difluoro-16-hydroxy-3-methyl-18,18-dioxo-8,11-dioxa-18λ6-thia-19-azatetracyclo[18.3.1.113,17.02,7]pentacosa-1(23),2(7),3,5,13(25),14,16,20(24),21-nonaen-12-one], the IC50 on ACLY [1] is at least 10000 nM; at ACLY [2], at least 50000 nM.

As for `CN1Cc2ccccc2-c2cc(c(F)cc2F)NS(=O)(=O)c2cc(cc(Cl)c2O)C1=O` [Compound 91, 13-chloro-19,21-difluoro-14-hydroxy-9-methyl-16,16-dioxo-16λ6-thia-9,17-diazatetracyclo[16.3.1.111,15.02,7]tricosa-1(22),2,4,6,11(23),12,14,18,20-nonaen-10-one], the IC50 on ACLY [1] was 100 to 10000 nM; on ACLY [2], at least 50000 nM.

Consider `O=C1OCc2ccccc2-c2cc(c(F)cc2F)NS(=O)(=O)c2cc1cc(Cl)c2O` [Compound 78, 13-Chloro-19,21-difluoro-14-hydroxy-16,16-dioxo-9-oxa-16λ6-thia-17-azatetracyclo[16.3.1.111,15.02,7]tricosa-1(21),2(7),3,5,11(23),12,14,18(22),19-nonaen-10-one], for which the IC50 at ACLY [1] was below 20 nM; at ACLY [2] it was below 300 nM.

Regarding `O=C1c2cc(Cl)c(O)c(c2)S(=O)(=O)Nc2cc(c(F)cc2F)-c2cccc3c2CN1C3` [Compound 89, 13-chloro-19,21-difluoro-14-hydroxy-16,16-dioxo-16λ6-thia-9,17-diazapentacyclo[16.3.1.16,9.111,15.02,7]tetracosa-1(21),2(7),3,5,11,13,15(23),18(22),19-nonaen-10-one], the IC50 was 100 to 10000 nM on ACLY [1] and at least 50000 nM on ACLY [2].
